Assays:
SAMD9 promoter = assay: High-throughput luciferase reporter screen in HeLa line stably expressing 585 bp SAMD9 promoter fragment; assay type: cell-based, human; settings: Homo sapiens, HeLa; fold increase in promoter activity by luciferase assay vs cells treated with vehicle only; test drugs 10 μM, 24 hours; read-out: SAMD9 expression fold change in HeLa reporter assay
Description: HeLa cell lines stably expressing the constructs were generated under neomycin selection. Briefly, pGL4.17 containing a SAMD9 promoter fragment spanning 585 bp upstream to the TSS and an empty pGL4.17 vector were transfected into HeLa cells. Forty eight hours after transfection, standard medium was replaced with medium containing 600 μg/ml G418 (Sigma-Aldrich), cells were kept under G418 selection and the selective medium was replaced approximately every 2-3 days. After two passages, colonies of stable cells were isolated, expanded and frozen for further use.
Test drugs were dispensed at a concentration of 10 μM by a robotic system into 96-well plates containing 9000 cells/well expressing the pGL4.17 reporter construct carrying a 585 bp SAMD9 promoter fragment operably linked to luciferase gene or the empty pGL4.17 luciferase construct (Promega cat. no. E6721). Medium was removed after 24 hours and the cells subjected to Steady-Glo luciferase lysis-substrate solution assay (Promega) as described above. Liquid handling was done with the Tecan (Tecan) Freedom 150 (Robotic & MCA liquid Handling System) and the luciferase reading was done with a robot integrated Tecan Infinite® M1000 reader.
This cell line was then used to robotically screen a total of 1496 compounds obtained from the National Cancer Institute Diversity Set III and Oncology Drugs Set III small molecule libraries.

SAMD9 = SAMD9 RNA expression by qRT-PCR in HeLa cells; assay type: cell-based, human; settings: for SAMD9 expression in HeLa cells: 5 μM, 24 hours, qRT-PCR vs DMSO (FIG. 1C); for SAMD9 expression fold change in HeLa cells: fold increase in RNA gene expression vs cells treated with vehicle only
Description: HeLa cells were cultured in DMEM 4.5 g/l glucose medium containing 10% FCS, 1% L-glutamine and 1% penicillin and streptomycin (Biological Industries) and grown at 37° C. and 5% CO2.
(§1) Of note, when cells were incubated with CaCx and ApDx (NCI, MA USA), they were grown in the appropriate medium with 0.1% FCS only.
(§2) RNA was extracted from cell cultures using an RNA extraction kit (Roche Diagnostics, Mahheim, Germany). cDNA was synthesized from 500 ng of total RNA using the Verso cDNA kit (Thermo Fisher Scientific, Waltham, MA, USA). cDNA PCR amplification was carried out using the Fast SYBR Green Master Mix in a StepOnePlus™ Real-Time PCR System (Applied Biosystems, Foster City, CA, USA) with gene-specific intron-crossing oligonucleotide pairs listed in Table 1 (below). For quantification, standard curves were obtained using serially diluted cDNA amplified in the same qRT-PCR run. The melting temperature (Tm) of the amplified products was measured to confirm the specificity of the reaction conditions. Cycling conditions were as follows: 95° C. for 10 minutes, 95° C. for 10 seconds, 62° C. for 15 seconds, and 72° C. for 25 seconds for a total of 40 cycles. Each sample was analyzed in triplicate. mRNA expression level for target gene was normalized to GAPDH. The results are based the amount of target, normalized to an endogenous reference (IACTB) and relative to a calibrator, as calculated by 2-ΔΔCT. All samples were run in triplicate. The expression levels of target genes were expressed as mRNA relative units.
The potential ability of these 31 molecules to induce SAMD9 expression in cell cultures was then scrutinized.

EGR1 = EGR1 RNA expression by qRT-PCR in primary fibroblasts; assay type: cell-based, human; settings: 5 μM over 72 hours, different time points (FIG. 3)
Description: Primary fibroblasts were isolated from human adult skin and were grown in High Glucose DMEM, 10% Fetal Bovine Serum, L-glutamine and Pen-Strep. Medium was changed every 2-3 days. Cells were used at passage 2-3.
as §1
as §2, with “Cycling conditions were as follows: 95° C. for 10 minutes, 95° C. for 10 seconds, 62° C. for 15 seconds, and 72° C. for 25 seconds for a total of 40 cycles.” left out, “All samples were run in triplicate.” left out

[1] = system: imiquimod-induced psoriasiform dermatitis; assay: Imiquimod-induced psoriasiform dermatitis in mice; assay type: in vivo; settings: for Overt toxicity / Inflammatory infiltrate / Epidermal thickness / Index of proliferation (Ki67): i.p. five times a week, CaCx 22.5 mg/kg or ApDx 7.5 mg/kg; for Overt toxicity: 5 days; for Inflammatory infiltrate: biopsies after 5 days; for Epidermal thickness / Index of proliferation (Ki67): biopsies after 5 days (FIG. 5A); for EGR1 RNA levels in treated skin: quantitative PCR vs vehicle group (FIG. 5B); for EGR1 RNA levels in treated skin / IL-33 RNA levels in treated skin: CaCx 22.5 mg/kg or ApDx 7.5 mg/kg i.p.; for IL-33 RNA levels in treated skin: quantitative PCR vs vehicle group (FIG. 5C)
Description: Balb/c mice (Harlan Laboratories Ltd, Jerusalem, Israel), 9 weeks of age, were maintained in a pathogen-free animal facility. Animal care and research protocols had been approved by the institutional committee for animal use. Imiquimod 5% (Perrigo, Israel) was used as topical treatment for the mice on their upper backs. Mice were injected i.p. five times a week with DMSO or 7.5-22.5 mg/kg of ApDx and CaCx, respectively (NCI). 10% DMSO in […] was used as a vehicle control.
Formaldehyde-fixed 5-μm paraffin-embedded sections from skin biopsies were deparaffinized and treated with 3% H2O2 in methanol for 15 minutes at room temperature, warmed in a microwave oven in citrate buffer in a pressure cooker for 25 minutes, and stained with a monoclonal anti-Ki67 antibody (Thermo Scientific) for 1 hour at room temperature. Following 3 washings (10 minutes each) with phosphate-buffered saline (PBS), the antibodies were imaged using the ABC technique (Zymed Laboratories, South San Francisco, CA) and the slides were counterstained with hematoxylin.
Epidermal thickness was defined as the distance between the granular layer and the basement membrane and was measured at 10 randomly selected locations for each biopsy using NIS-Elements BR 3.2 software (Nikon, NY USA). An image was taken and was manually measured in the software by selecting an upper and lower border, as defined above. The distance was measured in microns.
as §2
This hypothesis was tested in a murine model in which psoriasiform dermatitis was induced using imiquimod [as previously described in Tortola, L. et al. (2012) J Clin Invest 122, 3965-76].
Balb/c mice were treated topically with imiquimod and were injected five times a week i.p. with either the vehicle, 22.5 mg/kg of CaCx or 7.5 mg/kg of ApDx.
After 5 days, biopsies were obtained from the treated skin and stained for hematoxylin and eosin as well as for Ki67 (FIGS. 4A-F), as a surrogate marker for cellular proliferation.

Row | Compound | fold induction at 10 µM (SAMD9 promoter) | SAMD9 expression in HeLa cells (SAMD9) | SAMD9 expression fold change in HeLa cells (SAMD9) | EGR1 expression in primary fibroblast cells (EGR1) | Overt toxicity [1] | Inflammatory infiltrate [1] | Epidermal thickness [1] | Index of proliferation (Ki67) [1] | EGR1 RNA levels in treated skin [1] | IL-33 RNA levels in treated skin [1]
1 | Cc1c2ccnc(C(N)=O)c2c(C)c2c1[nH]c1ccccc12.Cl [Compound 335142, 6H-Pyrido[4,3-b]carbazole-1-carboxamide, 5,11-dimethyl-, monohydrochloride] | 2.95 | significantly induce | 6.44 fold | significantly down-regulated | No overt toxicity | did not affect | decrease | decrease | significant decrease | significant decrease
2 | CCCN1c2ccc(N)cc2S(=O)(=O)c2cc(Cl)cc(Cl)c21 [Compound 629971, 7,9-dichloro-5,5-dioxo-10-propylphenothiazin-3-amine] | 4.85 | significantly induce | 20.5 fold | significantly down-regulated | No overt toxicity | did not affect | decrease | decrease | significant decrease | significant decrease

Source: patent US12023348B2, “EGR1 targeting molecules for the treatment of inflammatory and hyperproliferative conditions” (The Medical Research, Infrastructure and Health Services …, priority 2015, dated 2024)
